Columns and labels:
[1] = system: cell proliferation; details: cited from earlier work
[2] = system: DNA repair response (RPA, γ-H2AX); details: non-proliferating cells; cited from earlier work
[3] = unless given intravascularly; cited from earlier work
[4] = system: HCT116 colon cancer cells; details: 250 times the GC50 concentration for 4 days; cited from earlier work
[5] = system: choroidal neovascularization; experiment: Laser induced mouse model of choroidal neovascularization, intravitreal injection; details: for inhibition of neovascularization in the area of the laser burn: single intravitreal dose of 0.6 ng, day 14
Description: Details of the model are provided in Xie, B. et al., “Blockade of Sphingosine-1-phosphate Reduces Macrophage Influx and Retinal and Choroidal Neovascularization,” J Cell Physiol, 218(1): 192-8 (January 2009 Bizelesin was formulated in PBS as described in Example 1. In brief, 5-6 week old C57BL/6 mice on day 0 were anesthetized and choroidal neovascularization was induced by laser photocoagulation-induced rupture of Bruch's membrane. The mice were then given an intravitreal injection of 1 microliter of control diluent in one eye and in the contralateral fellow eye 1 microliter of solution containing 6 ng to 0.006 ng of Bizelesin. Ten mice were employed per dose level. On day 14 the mice were perfused with fluorescein-labeled dextran, the retinas were isolated, flat mounts prepared, and the area of neovascularization was determined with fluorescent microscopy and computerized image analysis.

[6] = system: approximately 60 different human cancer cell lines; details: average value across the cell lines, 48 hours incubation; cited from earlier work
[7] = system: retinal neovascularization; experiment: Mouse model of ischemic proliferative retinopathy, intravitreal injection
Procedure: Intravitreal bizelesin was evaluated in the mouse model of ischemic proliferative retinopathy.
Bizelesin was dissolved in DMSO PharmaSolvent (Gaylord Chemical, Inc.) at 20 microgram/ml and filtered sterilized with a 0.2 micron Milliex-LG Millipore filter. […] The bizelesin solution was stored at −65 C or below. Immediately prior to administration the drug solution was thawed and diluted with sterile phosphate buffered saline (PBS).
In brief, for the ischemic proliferative retinopathy model, liters of C57BL/6 mice were exposed to 75% oxygen from P7 to P12 (P=age in days) and then returned to room air. On P12 the mice were anesthetized and given an intravitreal injection of 1 microliter of bizelesin solution or 1 microliter of control diluent. The dose of bizelesin ranged from 0.6 picogram to 0.6 nanograms. On the evening of P16 the mice were given an intravitreal injection of anti-mouse platelet endothelial cell adhesion molecule-1 (PECAM-1) antibody, which stain new blood vessels. On P17, the retinas were isolated, flat mounts prepared, and the area of neovascularization was determined with fluorescent microscopy and computerized image analysis.

[8] = system: approximately 60 different human cancer cell lines; experiment: NCI DTP Human Tumor Cell Line Screen (colorimetric assay, 48 hours); assay type: cell-based; details: average value across the cell lines, 48 hours incubation
Procedure: FIG. 1 summarizes the screening results obtained with forty different anticancer agents in the National Cancer Institute (NCI) DTP Human Tumor Cell Line Screen in which approximately 60 different human cancer cell lines were incubated for 48 hours with the anticancer drugs. […] For details on the assay, find on the wide world web at dtp.nci.nih.gov/branches/btb/ivclsp. FIG. 1 presents for each drug the average value across the cell lines of the TGI, the LC50, and the ratio of LC50 to TGI.
In a preferred embodiment the drug is bizelesin. Bizelesin has a number of unexpected properties that make it highly suited for treating proliferative disorders of the eye. The drug is an ultra-potent irreversible inhibitor of cell proliferation. As few as 1 to approximately 10 bizelesin-DNA crosslinks can inhibit cell proliferation. The small number of drug molecules per cell needed to inhibit clonogenic potential limits collateral damage to cellular processes in nonproliferating cells. […] There is a large difference between the bizelesin concentration that inhibits cell proliferation and the concentration that kills cells. This unexpected property is in sharp contrast to typical anticancer drugs as evidence by the data shown in FIG. 1, which summarizes screening results obtained with forty different anticancer agents in the National Cancer Institute (NCI) DTP Human Tumor Cell Line Screen. […]

[9] = system: cellular DNA; details: cited from earlier work
[10] = system: retinal fibrosis; details: long-term follow-up; cited from earlier work

**Q.** Which results are given for `Cc1c[nH]c2c1[C@@]13C[C@@H]1CN(C(=O)c1cc4cc(NC(=O)c5cc6ccccc6o5)ccc4[nH]1)C3=CC2=O` [adozelesin]?
**A.** GI50 (inhibition of cell proliferation) [1]: picomolar to sub-picomolar range; DNA repair response [2]: does not trigger A DNA repair response

**Q.** For `Cc1c[nH]c2c(O)cc3c(c12)[C@H](CCl)CN3C(=O)c1cc2cc(NC(=O)Nc3ccc4[nH]c(C(=O)N5C[C@@H](CCl)c6c5cc(O)c5[nH]cc(C)c65)cc4c3)ccc2[nH]1` [bizelesin], which “GI50 (inhibition of cell proliferation)” value [1] is on record?
**A.** picomolar to sub-picomolar range

**Q.** And the systemic bioavailability [3]?
**A.** poor systemic bioavailability

**Q.** And the apoptosis [4]?
**A.** did not cause apoptosis

**Q.** And the “clinical evidence of ocular toxicity” value ([5]; intravitreal 6 ng to 0.006 ng)?
**A.** no clinical evidence of ocular toxicity

**Q.** What about the “inhibition of neovascularization in the area of the laser burn” value [5] of the same molecule?
**A.** nearly complete inhibition

**Q.** And the “inhibition of neovascularization in the area of the laser burn” value ([5]; listed as Bizelesin)?
**A.** dramatic inhibition

**Q.** And the “TGI (drug concentration that completely inhibited cell growth)” value [6]?
**A.** picomolar range

**Q.** What about the “clinical evidence of ocular toxicity” value ([7]; intravitreal 0.6 nanogram) of the same molecule?
**A.** without any clinical evidence of ocular toxicity

**Q.** What about the “average area of neovascularization compared to diluent (p value)” value ([7]; single dose of 0.06 ng) of the same molecule?
**A.** highly statistically significant

**Q.** And the “average area of neovascularization compared to diluent (p value)” value ([7]; single dose of 0.6 ng)?
**A.** highly statistically significant

**Q.** What about the “inhibition of proliferative retinopathy and neovascularization” value ([7]; single intravitreal injection of 0.6 nanogram on P12, read on P17) of the same molecule?
**A.** nearly complete inhibition

**Q.** What about the “ratio of LC50 to TGI” value [8] of the same molecule?
**A.** 480

**Q.** With `N.N.[Cl][Pt][Cl]` [cisplatin] as the molecule, how does the “DNA adducts formed at concentrations that inhibit cell growth by 50%” value [9] read?
**A.** approximately 14,000

B1: ranibizumab (antibody, chains of the INN, looked up, V domains shown)
VH: EVQLVESGGGLVQPGGSLRLSCAASGYDFTHYGMNWVRQAPGKGLEWVGWINTYTGEPTYAADFKRRFTFSLDTSKSTAYLQMNSLRAEDTAVYYCAKYPYYYGTSHWYFDVWGQGTLVTVSS
VL: DIQLTQSPSSLSASVGDRVTITCSASQDISNYLNWYQQKPGKAPKVLIYFTSSLHSGVPSRFSGSGSGTDFTLTISSLQPEDFATYYCQQYSTVPWTFGQGTKVEIK
**Q.** With B1 as the molecule, how does the “patients who developed retinal fibrosis” value [10] read?
**A.** 50%

Source: US20110200662A1, “Method For The Treatment Of Proliferative Disorders Of The Eye” (priority 2008, published 2011)
